In US20130045952A1, “ABA Receptor Agonists for Increased Plant Stress Resistance” (Van Andel Research Institute, priority 2011, published 2013):

How the values were obtained:
Assay type in all cases: biochemical
His6-PYR1 / biotin-PP2C = target: T1, His6-PYR1 / biotin-PP2C (Arabidopsis thaliana, UniProt O49686); assay: AlphaScreen luminescence proximity assay, PYR1-PP2C interaction; settings: 100 nM His6-PYR1, 100 nM biotin-PP2C, 100 μM agonist; normalized against a pyrabactin control
T1 construct: made in house; host or cells: E. coli is stated for PYL1, PYL2 and the PP2Cs, not expressly for PYR1
T1 sequence (O49686 1-191): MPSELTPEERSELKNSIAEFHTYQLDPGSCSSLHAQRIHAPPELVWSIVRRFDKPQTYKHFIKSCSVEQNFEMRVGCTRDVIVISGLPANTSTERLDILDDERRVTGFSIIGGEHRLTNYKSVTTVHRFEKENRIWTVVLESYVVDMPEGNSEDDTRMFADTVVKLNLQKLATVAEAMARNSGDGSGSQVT
Procedure: (§1) Mutant proteins were expressed as H6GST-fusion proteins and purified by glutathione sepharose chromatography. Protein-protein interactions were determined by luminescence proximity AlphaScreen assay. Biotinylated PP2C proteins for the luminescence proximity assay were generated by in vivo biotinylation of avitag-PP2C fusion proteins. PP2C phosphatase activity was measured by phosphate release from a SnRK2.6 phosphoprotein.
(§2) Interactions between PYR/PYL and PP2Cs were assessed by luminescence-proximity AlphaScreen technology (Perkin Elmer). Briefly, biotinylated PP2Cs were attached to streptavidin-coated donor beads, and H6-tagged PYR/PYL receptors were attached to nickel-chelated acceptor beads. The donor and acceptor beads were brought into proximity by the interactions between PYR/PYLs and PP2Cs, which were measured with and without ligands. When excited by a laser beam of 680 nm, the donor beam emits singlet oxygen that activates thioxene derivatives in the acceptor beads, which releases photons of 520-620 nm as the binding signal. The experiments were conducted with 100 nM of PP2Cs and PYR/PYL proteins in the presence of 5 ug/ml donor and acceptor beads in a buffer of 50 mM MOPS, pH7.4, 50 mM NaF, […], and 0.1 mg/ml bovine serum albumin. The results were based on an average of three experiments with standard errors typically less than 10% of the measurements.
(§3) Values were determined in different experiments and normalized against a pyrabactin control. Blank spaces mean no experimental data is available. Key (photon counts (binding signal units) in Alphascreen luminescence proximity assay): “+++ is >75,000; ++ is 25,000−75,000; + is <25,000.

His6-PYL2 / biotin-PP2C = target: T2, His6-PYL2 / biotin-PP2C (Arabidopsis thaliana, UniProt O80992); assay: AlphaScreen luminescence proximity assay, PYL2-PP2C interaction; settings: 100 nM His6-PYL2, 100 nM biotin-PP2C, 100 μM agonist; normalized against a pyrabactin control
T2 construct: PYL2 (residues 14-188), and HAB1 (residues 172-511) were prepared as recombinant proteins in E. coli; made in house; host or cells: E. coli
T2 sequence (O80992 14-188): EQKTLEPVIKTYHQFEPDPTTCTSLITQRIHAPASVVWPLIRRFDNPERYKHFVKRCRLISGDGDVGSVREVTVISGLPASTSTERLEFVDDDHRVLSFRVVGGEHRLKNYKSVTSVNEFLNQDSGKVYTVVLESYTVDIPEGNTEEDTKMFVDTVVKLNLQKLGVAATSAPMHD
Procedure: as §1, §2, §3

His6-PYL3 / biotin-PP2C = target: T3, His6-PYL3 / biotin-PP2C (Arabidopsis thaliana, UniProt Q9SSM7); assay: AlphaScreen luminescence proximity assay, PYL3-PP2C interaction; settings: 100 nM His6-PYL3, 100 nM biotin-PP2C, 100 μM agonist; normalized against a pyrabactin control
T3 construct: made in house; host or cells: not expressly stated for PYL3
T3 sequence (Q9SSM7 1-209): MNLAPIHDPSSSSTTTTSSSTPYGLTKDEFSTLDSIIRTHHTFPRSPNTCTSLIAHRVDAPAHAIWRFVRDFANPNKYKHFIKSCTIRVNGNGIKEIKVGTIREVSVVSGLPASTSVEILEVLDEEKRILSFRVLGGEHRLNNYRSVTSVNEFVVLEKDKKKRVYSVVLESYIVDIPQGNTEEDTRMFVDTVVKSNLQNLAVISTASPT
Procedure: as §1, §2, §3

His6-PYR1 / biotin-ABI1 = target: T4, His6-PYR1 / biotin-ABI1 (Arabidopsis thaliana, UniProt O49686); assay: AlphaScreen dose response, PYR1-ABI1 interaction; settings: 100 nM His6-PYR1, 100 nM biotin-PP2C, 0-100 μM agonist; from dose response curves
T4 construct: made in house; host or cells: E. coli (stated for the PP2Cs; not expressly for PYR1)
T4 sequence (O49686 1-191): T1 sequence (O49686 1-191)
T4 sequence (P49597 117-434 partner limits assumed): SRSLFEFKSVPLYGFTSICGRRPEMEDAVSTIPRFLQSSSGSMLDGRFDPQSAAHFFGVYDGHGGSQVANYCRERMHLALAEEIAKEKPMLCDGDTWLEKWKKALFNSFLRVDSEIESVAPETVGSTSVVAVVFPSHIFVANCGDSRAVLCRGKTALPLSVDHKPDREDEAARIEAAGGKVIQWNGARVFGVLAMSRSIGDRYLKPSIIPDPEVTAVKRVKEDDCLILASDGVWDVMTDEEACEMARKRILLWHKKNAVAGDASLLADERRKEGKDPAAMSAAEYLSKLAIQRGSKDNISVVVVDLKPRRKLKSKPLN
Procedure: as §2
(§4) The results shown in Table 5b were calculated from the dose response curves of the dependence of the interaction between 100 nM His6-PYR1 and 100 nM biotin-PP2C on the presence of 0-100 μM agonists determined by AlphaScreen luminescence proximity assay. Key (EC50 in μM): ++++=<5.0 μM; +++=5-10 μM; ++=10-20 μM; and +=>20-60 μM.

His6-PYR1 / biotin-ABI2 = target: T5, His6-PYR1 / biotin-ABI2 (Arabidopsis thaliana, UniProt O49686); assay: AlphaScreen dose response, PYR1-ABI2 interaction; settings: 100 nM His6-PYR1, 100 nM biotin-PP2C, 0-100 μM agonist; from dose response curves
T5 construct: made in house; host or cells: E. coli (stated for the PP2Cs; not expressly for PYR1)
T5 sequence (O49686 1-191): T1 sequence (O49686 1-191)
T5 sequence (O04719 101-423 partner limits assumed): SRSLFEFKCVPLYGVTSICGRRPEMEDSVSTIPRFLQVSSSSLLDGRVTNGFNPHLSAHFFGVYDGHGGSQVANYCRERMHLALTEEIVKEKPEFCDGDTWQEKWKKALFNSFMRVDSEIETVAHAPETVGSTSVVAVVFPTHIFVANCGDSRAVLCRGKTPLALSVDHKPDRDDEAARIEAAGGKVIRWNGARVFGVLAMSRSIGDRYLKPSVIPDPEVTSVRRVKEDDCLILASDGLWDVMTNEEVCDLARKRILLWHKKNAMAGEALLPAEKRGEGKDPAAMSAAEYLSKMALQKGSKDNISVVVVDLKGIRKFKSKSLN
Procedure: as §2, §4

His6-PYR1 / biotin-HAB1 = target: T6, His6-PYR1 / biotin-HAB1 (Arabidopsis thaliana, UniProt O49686); assay: AlphaScreen dose response, PYR1-HAB1 interaction; settings: 100 nM His6-PYR1, 100 nM biotin-PP2C, 0-100 μM agonist; from dose response curves
T6 construct: made in house; host or cells: E. coli (stated for the PP2Cs; not expressly for PYR1)
T6 sequence (O49686 1-191): T1 sequence (O49686 1-191)
T6 sequence (Q9CAJ0 172-511 partner limits assumed): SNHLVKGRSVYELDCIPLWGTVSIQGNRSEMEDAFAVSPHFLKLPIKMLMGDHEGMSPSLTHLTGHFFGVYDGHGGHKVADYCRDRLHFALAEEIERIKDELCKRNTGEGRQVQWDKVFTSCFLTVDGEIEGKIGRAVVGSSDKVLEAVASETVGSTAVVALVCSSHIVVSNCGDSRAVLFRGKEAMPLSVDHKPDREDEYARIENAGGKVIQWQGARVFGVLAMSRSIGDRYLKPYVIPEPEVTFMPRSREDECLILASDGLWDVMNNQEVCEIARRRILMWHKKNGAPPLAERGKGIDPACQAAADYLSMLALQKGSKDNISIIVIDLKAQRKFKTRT
Procedure: as §2, §4

ABI1 = target: T7, ABI1 (Arabidopsis thaliana, UniProt O49686+P49597); assay: PP2C phosphatase activity assay, ABI1; settings: 200 nM PP2C; SnRK2.6 phosphopeptide substrate; None = 100
T7 construct: ABI1 (residues 117-434) and ABI2 (residues 101-423) were expressed as H6Sumo fusion proteins; H6Sumo (N); made in house; host or cells: E. coli BL21
T7 sequence (P49597 117-434 limits assumed): T4 sequence (P49597 117-434 partner limits assumed)
T7 sequence (O49686 1-191): T1 sequence (O49686 1-191)
Procedure: as §1
(§5) PP2Cs and PYR/PYL proteins were pre-incubated at the indicated concentrations in 50 mM imidazole, pH 7.2, 5 mM MgCl2, 0.1% β-mercaptoethanol and 0.5 mg/ml BSA for 30 min at room temperature. Reactions were started by addition of 100 μM of a phosphopeptide corresponding to amino acids 170-180 of SnRK2.6 (HSQPK^pSTVGTP). This peptide is phosphorylated at a single residue corresponding to Ser175 in SnRK2.6, whose phosphorylation is required for SnRK2.6 kinase activity^32. Phosphate release from ^pS175 from the phosphopeptide was determined by colorimetric assay (BioVision).

ABI2 = target: T8, ABI2 (Arabidopsis thaliana, UniProt O04719+O49686); assay: PP2C phosphatase activity assay, ABI2; settings: 200 nM PP2C; SnRK2.6 phosphopeptide substrate; None = 100
T8 construct: ABI1 (residues 117-434) and ABI2 (residues 101-423) were expressed as H6Sumo fusion proteins; H6Sumo (N); made in house; host or cells: E. coli BL21
T8 sequence (O04719 101-423 limits assumed): T5 sequence (O04719 101-423 partner limits assumed)
T8 sequence (O49686 1-191): T1 sequence (O49686 1-191)
Procedure: as §1, §5

HAB1 = target: T9, HAB1 (Arabidopsis thaliana, UniProt O49686+Q9CAJ0); assay: PP2C phosphatase activity assay, HAB1; settings: 200 nM PP2C; SnRK2.6 phosphopeptide substrate; None = 100
T9 construct: HAB1 (residues 172-511) were prepared as recombinant proteins in E. coli; H6GST or H6Sumo; made in house; host or cells: E. coli
T9 sequence (Q9CAJ0 172-511 limits assumed): T6 sequence (Q9CAJ0 172-511 partner limits assumed)
T9 sequence (O49686 1-191): T1 sequence (O49686 1-191)
Procedure: as §1, §5

His6-PYL1 / biotin-PP2C = target: T10, His6-PYL1 / biotin-PP2C (Arabidopsis thaliana, UniProt Q8VZS8); assay: AlphaScreen luminescence proximity assay, PYL1-PP2C interaction; settings: 100 nM His6-PYL1, 100 nM biotin-PP2C, 100 μM agonist; normalized against a pyrabactin control
T10 construct: PYL1 (residues 36-211), PYL2 (residues 14-188), and HAB1 (residues 172-511) were prepared as recombinant proteins in E. coli; made in house; host or cells: E. coli
T10 sequence (Q8VZS8 36-211): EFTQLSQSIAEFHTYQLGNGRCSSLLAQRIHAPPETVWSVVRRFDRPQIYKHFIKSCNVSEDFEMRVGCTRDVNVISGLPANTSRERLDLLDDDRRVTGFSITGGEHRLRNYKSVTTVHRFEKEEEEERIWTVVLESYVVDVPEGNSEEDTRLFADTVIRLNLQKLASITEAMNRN
Procedure: as §1, §2, §3

Compound | Stimulation of the interaction between PYR1 and PP2C (binding signal) (His6-PYR1 / biotin-PP2C) | Stimulation of the interaction between PYL2 and PP2C (binding signal) (His6-PYL2 / biotin-PP2C) | Stimulation of the interaction between PYL3 and PP2C (binding signal) (His6-PYL3 / biotin-PP2C) | EC50 (His6-PYR1 / biotin-ABI1) | EC50 (His6-PYR1 / biotin-ABI2) | EC50 (His6-PYR1 / biotin-HAB1) | % Phosphatase Activity ABI1 (ABI1) | % Phosphatase Activity ABI2 (ABI2) | % Phosphatase Activity HAB1 (HAB1) | Stimulation of the interaction between PYL1 and PP2C (binding signal) (His6-PYL1 / biotin-PP2C)
CSCCCC(NS(=O)(=O)c1ccc(Br)c2ccccc12)C(=O)O (stereo not shown) [Compound 3] | ++ (++ is 25,000−75,000) | + (+ is <25,000) | +++ (+++ is >75,000) | < 5 µM | < 5 µM | < 5 µM | 7.7 ± 4.3% | 7.0 ± 0.3% | 17.5 ± 0.6% | 
O=S(=O)(NCc1ccccn1)c1ccc2ccccc2c1 [Compound 4] | +++ (+++ is >75,000) |  | + (+ is <25,000) |  |  |  |  |  |  | 

The next lines start with the values.

Stimulation of the interaction between PYR1 and PP2C (binding signal) (His6-PYR1 / biotin-PP2C) | Stimulation of the interaction between PYL2 and PP2C (binding signal) (His6-PYL2 / biotin-PP2C) | Stimulation of the interaction between PYL3 and PP2C (binding signal) (His6-PYL3 / biotin-PP2C) | EC50 (His6-PYR1 / biotin-ABI1) | EC50 (His6-PYR1 / biotin-ABI2) | EC50 (His6-PYR1 / biotin-HAB1) | % Phosphatase Activity ABI1 (ABI1) | % Phosphatase Activity ABI2 (ABI2) | % Phosphatase Activity HAB1 (HAB1) | Stimulation of the interaction between PYL1 and PP2C (binding signal) (His6-PYL1 / biotin-PP2C) | Compound
+ (+ is <25,000) | ++ (++ is 25,000−75,000) | + (+ is <25,000) |  |  |  |  |  |  | + (+ is <25,000) | CCOC(=O)C1OC(NC(=O)CSc2nnc(-c3ccccc3OCC)o2)C(C#N)C1C (stereo not shown) [Compound 5]
++ (++ is 25,000−75,000) | + (+ is <25,000) | ++ (++ is 25,000−75,000) |  |  |  |  |  |  |  | O=C(CNS(=O)(=O)c1ccccc1)OCc1ccc(Cl)c(Cl)c1 [Compound 6]
++ (++ is 25,000−75,000) | ++ (++ is 25,000−75,000) | + (+ is <25,000) |  |  |  |  |  |  | ++ (++ is 25,000−75,000) | CC(C)c1ccccc1OCCNS(=O)(=O)c1ccc2ccccc2c1 [Compound 7]
+ (+ is <25,000) | + (+ is <25,000) | ++ (++ is 25,000−75,000) |  |  |  |  |  |  |  | O=S(=O)(NCCOc1ccccc1)c1ccc2ccccc2c1 [Compound 8]
